Source: patent publication US7763273B2, “Method for reducing methane production emanating from the digestive activities of an animal” (DSM IP Assets B.V., priority 2002, dated 2010)

Tested on: strained rumen fluids
Experiment: In vitro incubation of sheep rumen fluid with ground diet: formation of methane and VFA
Type: cell-based
Parameters: Methane production / Total VFA: unit not given here
Conditions: for Effect on the formation of VFA (in words) / Effect on the formation of methane (in words): in vitro, versus control
Experimental: The efficacy of some essential oil compounds obtainable from plants was tested regarding their influence on the formation of methane and VFA in an in vitro system.
According to the test 200 mg of a ground diet, containing 50% hay, 30% barley, 9.5% molasses, 10% fishmeal and 0.5% vitamins, was added to wheaton bottles. To a triplicate of bottles containing the diet, 0.6 ml of a dissolution of one of the essential oil compounds mentioned in the table below, into propylene glycol was added to each bottle.
Three sheep were fed on the ground diet and strained rumen fluids in amounts of 500 ml were mixed with 1000 ml of Colemans Simplex buffer. The buffer had the following composition.
30 ml of the combined rumen fluid and the buffer were then introduced into the bottles, and their contents were incubated under CO2 at 39° C. for 24 hours. The methane production and the total amount of VFA was then measured. […]

[1] = 0.6 ml dissolution in propylene glycol per bottle, 200 mg diet, 30 ml rumen fluid/buffer, under CO2, 39° C., 24 hours

Row | Molecule | Effect on the formation of VFA (in words) | Effect on the formation of methane (in words) | Methane production [1] | Total VFA [1]
1 | c1ccc2ncccc2c1 [Quinoline] | promoting effect | methane-reducing effect | – | –
2 | Cc1ccc(C(C)C)c(O)c1 [Thymol] | notable reducing effect | strong methane-reducing effect | – | –
3 | Vanilla | promoting effect | methane-reducing effect | 1055 | 1300
